# Measured values reported in PubChem BioAssay AID1996.
# Conditions: buffer; pH 7.4; 200.0 µM
row,solubility kinetic,Structure (SMILES)
1,> 50.2 µg/mL,CC(NC(=O)CSc1ncccc1C(=O)O)C1CC2CCC1C2 (configuration not stated)
2,1.4 µg/mL,COc1ccc(N2CCN(C(CNS(=O)(=O)c3ccc(C)cc3)c3ccccc3)CC2)cc1 (configuration not stated)
3,34.2 µg/mL,CCC(C)C(NC(N)=O)C(=O)NC1CCC(C)CC1 (configuration not stated)
4,46.8 µg/mL,Cc1cccc(OCC(=O)NCCCNC(=O)c2ccco2)c1
5,> 35.5 µg/mL,Cc1cc(=O)n(-c2ccc(Cl)cc2)c(=O)[nH]1
6,> 54.2 µg/mL,O=C(NC(=S)N1CCN(c2ccccc2)CC1)c1c(F)cccc1F
7,0.7 µg/mL,CCCCC(=O)N/C(N)=N/c1nc2ccccc2o1
8,15.2 µg/mL,O=C(COC(=O)c1cccc(S(=O)(=O)NCc2ccccc2)c1)NC1CC1
9,> 52.3 µg/mL,COc1ccccc1CN(C)C(=O)COC(=O)c1ccc(Cl)nc1
10,6 µg/mL,Cc1ccc(-c2c[nH]c(=S)n2-c2ccccc2)cc1
11,3.7 µg/mL,Cc1c(C(=O)c2ccccc2)c2ccccn2c1CCc1ccccn1
12,> 50.8 µg/mL,CNC(=S)N(CCc1c(C)[nH]c2ccccc12)Cc1cccnc1
13,> 46.4 µg/mL,O=C(O)CC(CN1C(=O)c2ccccc2C1=O)c1ccccc1 (configuration not stated)
14,29.5 µg/mL,Cl.NCCSC1CC(=O)N(c2ccc(F)cc2)C1=O (configuration not stated)
15,2.2 µg/mL,O=C(OCC(=O)N1CCC(Cc2ccccc2)CC1)c1ccccc1O
16,> 38 µg/mL,FC(F)(F)c1ccc(NCc2ccccn2)nc1
17,> 70.4 µg/mL,CC(=O)Oc1cc(C(=O)OCC(=O)N2CCc3ccccc3C2)cc(OC(C)=O)c1OC(C)=O
18,13.8 µg/mL,COc1ccc(Br)cc1/C=C/C(=O)OCC(=O)NCCc1ccc(S(N)(=O)=O)cc1
19,45.8 µg/mL,O=C(N[C@@H](Cc1c[nH]c2ccccc12)C(=O)O)c1ccccc1Cl
20,41.7 µg/mL,CN(C)c1cc[n+](CC(=O)c2cccs2)cc1.[Cl-]
21,> 45.2 µg/mL,Cc1cccc(C(=O)Nc2sc3c(c2C(=O)O)CCC3)c1
22,43.6 µg/mL,CC(C)c1ccc(NS(=O)(=O)c2ccc(N3C(=O)CCC3=O)cc2)cc1
23,> 48.9 µg/mL,COc1cc([N+](=O)[O-])cc([N+](=O)[O-])c1NC(=O)N1CCOCC1

row,solubility kinetic,Structure (SMILES)
1,21.2 µg/mL,Cc1ccc(C2(c3noc(CN(C)CC4CCCCO4)n3)CCCC2)cc1 (configuration not stated)
2,> 46.5 µg/mL,CS(=O)(=O)c1ccc(C(=O)Nc2ccccc2Cl)cc1
3,< 0.3 µg/mL,CCNC(=S)N(Cc1cc2c(C)ccc(C)c2[nH]c1=O)C1CCCC1
4,19.7 µg/mL,CCc1ccc(OCCn2ccnc2)cc1
5,> 49.1 µg/mL,O=C(O)c1cccc(S(=O)(=O)Nc2cccc3ccccc23)c1
6,> 36.8 µg/mL,N#C/C(=C\c1ccc[nH]1)C(=O)NCC1CCCO1 (configuration not stated)
7,3.3 µg/mL,NC(=O)C1CCN(c2ccc([N+](=O)[O-])cc2Cl)CC1
8,> 55.7 µg/mL,O=C(N/C(=C/c1ccco1)C(=O)N1CCOCC1)c1ccc([N+](=O)[O-])cc1
9,3.4 µg/mL,COc1ccccc1N1C(=O)CSC1=S
10,> 37.2 µg/mL,CC(C)NCC(O)c1ccc(O)c(O)c1.Cl (configuration not stated)
11,4.1 µg/mL,CC(=O)c1cccc(NC(=S)NCCc2ccc(Cl)cc2)c1
12,15 µg/mL,Cc1nc(SCC(=O)Nc2ccc3[nH]c(=O)[nH]c3c2)nc(C)c1C
13,> 53.2 µg/mL,Cc1ccccc1Nc1nc(N)nc(COC(=O)c2c(C)noc2C)n1
14,18.3 µg/mL,CCN(CC)S(=O)(=O)c1c(OC)cc(C)c(Cl)c1C
15,> 49.1 µg/mL,CC(=O)N1CCN(c2ccc(S(C)(=O)=O)cc2[N+](=O)[O-])CC1
16,> 49.3 µg/mL,CS(=O)(=O)N(CC(=O)N1CCCCCC1)c1cccc(F)c1
17,42.1 µg/mL,Cc1cc(C(=O)OCC(=O)N(C)c2ccccc2)ccc1[N+](=O)[O-]
18,< 0.2 µg/mL,C=CCn1c(NC(=O)c2ccc(C)cc2)nc2ccccc21
19,> 50.2 µg/mL,CNC(=O)COc1ccc(S(=O)(=O)Nc2ccc(C)cc2)cc1
20,0.7 µg/mL,COc1ccc(-n2c(C)cc3cc(OC(C)=O)ccc32)cc1
21,> 45.7 µg/mL,CCc1nc2ccc(Cc3ccc4nc(CC)[nH]c4c3)cc2[nH]1
22,> 39.2 µg/mL,Cc1ccc(CNc2cc(C(=O)O)ccc2C)s1
23,0.9 µg/mL,Cc1cc(=O)oc2cc(NC(=O)Cc3ccccc3[N+](=O)[O-])ccc12

row,solubility kinetic,Structure (SMILES)
1,> 52.6 µg/mL,CCN1CCc2c(OCC(=O)N3CCc4ccccc43)cccc2C1=O
2,1.9 µg/mL,CCOc1ccc2ccccc2c1C1NC(=O)N(C)C(C)=C1C(=O)OCCOC (configuration not stated)
3,> 33.9 µg/mL,Nc1ccc(C(=O)NCc2ccccc2)cc1
4,> 45 µg/mL,CCOC(=O)CN1C(=O)CCSc2ccc(Cl)cc21
5,14.8 µg/mL,CCC(=O)N/C(N)=N/c1nc2ccccc2o1
6,> 39 µg/mL,O=C(COc1cccc(Cl)c1Cl)NC1CC1
7,11.6 µg/mL,CC1CCc2c(C(=O)Nc3ccccn3)csc2C1 (configuration not stated)
8,> 39.1 µg/mL,Cc1cccc(NC(=O)CCN2CCC(C)CC2)c1
9,> 61.6 µg/mL,Cc1ccc(S(=O)(=O)N2CCOCC2)cc1C(=O)OCC(=O)N1CCCC1=O
10,> 35.4 µg/mL,CC(SCC(=O)O)c1nc2ccccc2[nH]1 (configuration not stated)
11,30.7 µg/mL,O=C(NCCNC(=O)c1ccc(Cl)cc1Cl)c1ccco1
12,> 50.2 µg/mL,O=C(NC1CCCC1)C1CCN(C(=O)c2ccccc2Cl)CC1
13,< 0.8 µg/mL,CCOc1ccc(N2C(=O)S/C(=C\c3ccc(O)c(OCC)c3)C2=O)cc1
14,9 µg/mL,O=C1C=CC(=O)N1
15,> 43.6 µg/mL,O=C(COc1ccccc1)NCC(=O)N1CCCCCC1
16,26 µg/mL,O=C1NC2(CCCCCC2)C(=O)N1Cc1ccccc1F
17,> 48.9 µg/mL,O=C(NC1CC(=O)c2sccc21)c1ccc(Cl)cc1Cl (configuration not stated)
18,13.7 µg/mL,CCOc1ccc(C(C)=O)cc1Cn1c(=O)oc2ccccc21
19,> 51.8 µg/mL,Cc1ccc(S(=O)(=O)N2CCN(CCc3ccncc3)CC2)cc1
20,4.6 µg/mL,O=C1CN(C(=O)COC(=O)/C=C/c2ccc(F)cc2)c2ccccc2N1
21,32.1 µg/mL,c1ccc2c(-c3cncc4ccccc34)cncc2c1
22,> 43.9 µg/mL,CN(C)CCNc1cnn(-c2ccccc2)c(=O)c1Cl
23,35 µg/mL,CC1(C(=O)OCC(=O)Nc2ccccc2)CC1(Cl)Cl (configuration not stated)

row,solubility kinetic,Structure (SMILES)
1,0.6 µg/mL,CC(=O)Nc1ccc(NC(=O)c2cc(=O)c3cc(C)c(C)cc3o2)cc1
2,> 46.4 µg/mL,O=S(=O)(Nc1cccc(F)c1)c1cccc2nsnc12
3,8.9 µg/mL,Cc1cccc(C(=O)OCC(=O)NC23CC4CC(CC(C4)C2)C3)c1O
4,34.1 µg/mL,CC(C)(C)S(=O)(=O)c1cnc(-c2ccccn2)nc1N
5,> 58.6 µg/mL,COc1ccc(C(=O)Nc2ccccc2C(=O)Nc2ccc(C(=O)O)cc2)cc1
6,> 44.6 µg/mL,Br.CCn1c2c(c(=N)c3c1CCC3)CCCC2
7,> 44.2 µg/mL,O=C(COC(=O)c1cccnc1Cl)NCc1ccco1
8,< 0.2 µg/mL,Cc1ccc(Nc2nc(-c3ccncc3)nc3ccccc23)cc1
9,8.6 µg/mL,C=CCSc1nc(C)cc(C(=O)OCC)c1C#N
10,7.2 µg/mL,Cc1ccc(C(=O)C(C)OC(=O)Cc2c[nH]c3ccccc23)cc1 (configuration not stated)
11,25.2 µg/mL,O=C(COC(=O)c1ccc(Cl)nc1)NCc1cccs1
12,0.5 µg/mL,NC(=O)CSc1nc(-c2ccccc2)nc2c1CCCC2
13,41.3 µg/mL,Cc1ccc(CNS(=O)(=O)c2c(N)n(C)c(=O)n(C)c2=O)cc1
14,28.7 µg/mL,COc1cc(C=O)ccc1Oc1ccc(S(=O)(=O)N2CCOCC2)cc1[N+](=O)[O-]
15,12.2 µg/mL,O=Cc1cc([N+](=O)[O-])ccc1N1CCN(Cc2ccc3c(c2)OCO3)CC1
16,14.6 µg/mL,CC(C)c1nc2sc(C(=O)O)c(N)c2c2c1CCCC2
17,< 0.4 µg/mL,COc1ccccc1C(=O)Nc1ccc(Br)c2cccnc12
18,> 44.1 µg/mL,O=C(COC(=O)c1ccco1)NCc1ccccc1Cl
19,12.1 µg/mL,O=C(Nc1ccc(COc2ccccc2)cc1)Nc1cccc(C(=O)O)c1
20,1.5 µg/mL,O=C(NCCNc1ccc(Cl)cc1[N+](=O)[O-])c1ccccc1F
21,34.9 µg/mL,CCCCN=CC1=C(O)CC(c2ccccc2)CC1=O (configuration not stated)
22,3.7 µg/mL,COc1ccc(S(=O)(=O)N2CCc3ccccc32)cc1C(=O)NCCc1ccc(S(N)(=O)=O)cc1
23,3.1 µg/mL,O=C(Nc1ccccc1)c1cc([N+](=O)[O-])ccc1Cl

row,solubility kinetic,Structure (SMILES)
1,30.7 µg/mL,COc1ccccc1OCCCCN1CCC(C)CC1
2,5.6 µg/mL,COc1ccc([N+](=O)[O-])c(S(=O)(=O)c2ccccc2)n1
3,> 37.3 µg/mL,Cc1ccc(NC(=S)N2CCCCCC2)cc1
4,< 0.2 µg/mL,N#C/C(=C(/O)c1ccc([N+](=O)[O-])cc1)c1nc2ccccc2[nH]1
5,> 48.7 µg/mL,CC(C)c1ccccc1NC(=S)NCc1nc2ccccc2[nH]1
6,> 42 µg/mL,Nc1nc(Nc2ccc(Cl)cc2)c(NC=O)c(=O)[nH]1
7,> 46 µg/mL,COc1ccccc1S(=O)(=O)N1CCn2cccc2C1C (configuration not stated)
8,> 48.9 µg/mL,CN(C)C(CNC(=O)c1ccccc1C(F)(F)F)c1ccco1 (configuration not stated)
9,39.3 µg/mL,O=C(c1cccnc1)N1CCN(c2ccc3ccccc3n2)CC1
10,43.3 µg/mL,COc1cccc(C(=O)NCCCNC(=O)c2ccccn2)c1
11,> 36.6 µg/mL,Cn1c(CNC(=O)OC(C)(C)C)n[nH]c1=S
12,> 48.5 µg/mL,CCOC(=O)/C(N=Nc1ccc(C(=O)O)cc1[N+](=O)[O-])=C(\C)O
13,> 30.6 µg/mL,Cc1ccn2c(=O)c(C(=O)O)cnc2c1
14,> 38.1 µg/mL,Cc1cc(=O)[nH]c(-c2ccc(C(F)(F)F)cc2)n1
15,4.4 µg/mL,COc1ccc(NC(=O)CN(C)C2=NS(=O)(=O)c3ccccc32)cc1Cl
16,> 44.8 µg/mL,CC(=O)N/C(=C\c1ccc(C)o1)C(=O)NCc1ccccc1
17,1.1 µg/mL,CC(C)N(C(=O)COC(=O)c1ccc([N+](=O)[O-])cc1)c1ccccc1
18,5.5 µg/mL,CC(CCc1ccccc1)NC(=O)c1cnc(Cl)c(Cl)c1 (configuration not stated)
19,2 µg/mL,N#C/C(=C\c1cccc(O)c1)C(=O)Nc1ccc2c(c1)OCCO2
20,> 46.3 µg/mL,N#Cc1nccnc1N1CCN(C(=O)Nc2ccccc2)CC1
21,> 43 µg/mL,Cc1nc(CNS(=O)(=O)c2ccc(F)cc2)cs1

row,Structure (SMILES),solubility kinetic
1,COc1cc(CN2CC=C(c3ccc(F)cc3)CC2)cc(OC)c1,10.4 µg/mL
2,O=c1c2ccccc2nc(Cc2ccccc2)n1-c1ccccc1O,> 49.3 µg/mL
3,Clc1ccc(OCC#CCN2CCCC2)cc1.O=C(O)C(=O)O,45.1 µg/mL
4,CC(C)N1CCN(Cc2cc3c(cc2Cl)OCO3)CC1CCO (configuration not stated),39.9 µg/mL
